According to patent publication US12606541B2, “PPARg modulators and methods of use” (Eisai R&D Management Co., Ltd., priority 2020, dated 2026):

Columns and labels:
His6-TEV-PPARγ-(234-505) = target: T1, His6-TEV-PPARγ-(234-505) (Homo sapiens, UniProt P37231); assay: TR-FRET Assay to Measure Co-R Peptide Recruitment to PPARγ; format: biochemical; settings: Co-R peptide (SMRT-ID2) recruitment; top final concentration 20 μM; read-out: TR-FRET i-Ag; AC50
T1 construct: The His6-TEV-PPARγ-(234-505) protein for assay was expressed and purified; TEV cleavage site (N); made in house
T1 sequence (P37231 234-505): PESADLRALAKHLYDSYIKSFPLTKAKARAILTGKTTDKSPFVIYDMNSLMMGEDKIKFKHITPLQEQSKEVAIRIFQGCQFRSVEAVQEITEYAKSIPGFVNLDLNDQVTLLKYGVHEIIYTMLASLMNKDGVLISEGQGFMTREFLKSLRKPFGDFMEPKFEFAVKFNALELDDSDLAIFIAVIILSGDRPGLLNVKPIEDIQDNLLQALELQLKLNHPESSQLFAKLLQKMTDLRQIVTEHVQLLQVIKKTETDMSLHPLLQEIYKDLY
Summary of the method: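 Corepressor recruitment is measured by adding terbium-labeled anti-His antibody and FITC SMRT-ID2 peptide, at 5 and 200 nM final, after a 20-minute room-temperature protein–compound incubation. After one further hour, signal is converted to percent response between DMSO and 500 nM T0070907 wells.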

UM-UC-9 engineered cells = assay: Cell proliferation / short-term viability assay, CellTiter-Glo 144 h; format: cell-based, human; settings: Homo sapiens, UM-UC-9, 144 h, read-out: CTGlo 144 h UMUC9.5, G150
Summary of the method: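 Viability read by CellTiter-Glo 2.0 luminescence at day 7 versus DMSO-vehicle wells and a T0 plate measured on day 0. Cells: UM-UC-9 engineered assay-ready stocks, 500 cells/well in high-glucose DMEM with 10% FBS, 37° C, 5% CO2.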

| SMILES | AC50 (His6-TEV-PPARγ-(234-505)) | IC50 (UM-UC-9 engineered cells) |
| --- | --- | --- |
| COc1cc(-c2cc(C(=O)N3CCC(C(=O)NCc4ccc5c(c4)CC(=O)N5)CC3)n[nH]2)c(Cl)cn1 [Example 167, 1-(5-(5-chloro-2-methoxypyridin-4-yl)-1H-pyrazole-3-carbonyl)-N-((2-oxoindolin-5-yl)methyl)piperidine-4-carboxamide] | 112 nM | 4040 nM |
| COc1cc(-c2cc(C(=O)N3CCC(C(=O)NCc4cnc5[nH]ccc5c4)CC3)n[nH]2)c(Cl)cn1 [Example 168, N-((1H-pyrrolo[2,3-b]pyridin-5-yl)methyl)-1-(5-(5-chloro-2-methoxypyridin-4-yl)-1H-pyrazole-3-carbonyl)piperidine-4-carboxamide] | 45.7 nM | 487 nM |
| COc1cc(-c2cc(C(=O)N3[C@@H]4CC[C@H]3C[C@H](C(=O)N[C@H]3CC[C@](O)(C(F)(F)F)CC3)C4)n[nH]2)c(F)cn1 [Example 170-B, (1R,3s,5S)-8-(5-(5-fluoro-2-methoxypyridin-4-yl)-1H-pyrazole-3-carbonyl)-N-((1s,4S)-4-hydroxy-4-(trifluoromethyl)cyclohexyl)-8-azabicyclo[3.2.1]octane-3-carboxamide] | 1110 nM | 3560 nM |
| COc1cc(-c2cc(C(=O)N3CCC(O)(C(=O)NCc4cccc(Cl)c4)CC3)n[nH]2)c(Cl)cn1 [Example 171, 1-(5-(5-chloro-2-methoxypyridin-4-yl)-1H-pyrazole-3-carbonyl)-N-(3-chlorobenzyl)-4-hydroxypiperidine-4-carboxamide] | 210 nM | 1550 nM |
| COc1cc(-c2cc(C(=O)N3CCC(F)(C(=O)NCc4cccc(Cl)c4)CC3)n[nH]2)c(Cl)cn1 [Example 174, 1-(5-(5-chloro-2-methoxypyridin-4-yl)-1H-pyrazole-3-carbonyl)-N-(3-chlorobenzyl)-4-fluoropiperidine-4-carboxamide] | 125 nM | 407 nM |
| COc1cc(-c2cc(C(=O)N3CCC(C(=O)NCc4ccc(C)cn4)CC3)n[nH]2)c(Cl)cn1 [Example 176, 1-(5-(5-chloro-2-methoxypyridin-4-yl)-1H-pyrazole-3-carbonyl)-N-((5-methylpyridin-2-yl)methyl)piperidine-4-carboxamide] | 376 nM | 1840 nM |
| COc1cc(-c2cc(C(=O)N3CCC(C(=O)NCc4ccc(C(F)(F)F)nc4)CC3)n[nH]2)c(Cl)cn1 [Example 178, 1-(5-(5-chloro-2-methoxypyridin-4-yl)-1H-pyrazole-3-carbonyl)-N-((6-(trifluoro-15-methyl)pyridin-3-yl)methyl)piperidine-4-carboxamide] | 344 nM | 1260 nM |
| COc1cc(-c2cc(C(=O)N3CCC(C(=O)NCc4cncc(Cl)c4)CC3)n[nH]2)c(Cl)cn1 [Example 179, 1-(5-(5-chloro-2-methoxypyridin-4-yl)-1H-pyrazole-3-carbonyl)-N-((5-chloropyridin-3-yl)methyl)piperidine-4-carboxamide] | 321 nM | 1530 nM |
| COc1cc(-c2cc(C(=O)N3CCC(C(=O)NCc4ccc5cn[nH]c5c4)CC3)n[nH]2)c(Cl)cn1 [Example 180, N-((1H-indazol-6-yl)methyl)-1-(5-(5-chloro-2-methoxypyridin-4-yl)-1H-pyrazole-3-carbonyl)piperidine-4-carboxamide] | 144 nM | 707 nM |
| COc1cc(-c2cc(C(=O)N3CCC(C(=O)NCc4c[nH]c5ccccc45)CC3)n[nH]2)c(Cl)cn1 [Example 181, N-((1H-indol-3-yl)methyl)-1-(5-(5-chloro-2-methoxypyridin-4-yl)-1H-pyrazole-3-carbonyl)piperidine-4-carboxamide] | 56.2 nM | 85.6 nM |
| COc1cc(-c2cc(C(=O)N3CCC(C(=O)NCc4ccc5cnccc5c4)CC3)n[nH]2)c(Cl)cn1 [Example 182, 1-(5-(5-chloro-2-methoxypyridin-4-yl)-1H-pyrazole-3-carbonyl)-N (isoquinolin-6-ylmethyl)piperidine-4-carboxamide] | 422 nM | 1600 nM |
| COc1cc(-c2cc(C(=O)N3CCC(C(=O)NC4CC(=O)N(c5ccccc5)C4)CC3)n[nH]2)c(Cl)cn1 (centres unmarked) [Example 183, 1-(5-(5-chloro-2-methoxypyridin-4-yl)-1H-pyrazole-3-carbonyl)-N-(5-oxo-1-phenylpyrrolidin-3-yl)piperidine-4-carboxamide] | 233 nM | 1650 nM |
| COc1cc(-c2cc(C(=O)N3CCC(C(=O)NC4CCOc5ccccc54)CC3)n[nH]2)c(Cl)cn1 (centres unmarked) [Example 184, 1-(5-(5-chloro-2-methoxypyridin-4-yl)-1H-pyrazole-3-carbonyl)-N (chroman-4-yl)piperidine-4-carboxamide] | 215 nM | 384 nM |
| COc1cc(-c2cc(C(=O)N3CCC(C(=O)NCc4cn(C)c5ccccc45)CC3)n[nH]2)c(Cl)cn1 [Example 187, 1-(5-(5-chloro-2-methoxypyridin-4-yl)-1H-pyrazole-3-carbonyl)-N-((1-methyl-1H-indol-3-yl)methyl)piperidine-4-carboxamide] | 41.7 nM | 114 nM |
| COc1cc(-c2cc(C(=O)N3CCC(C(=O)NCc4ccc5cc[nH]c5c4)CC3)n[nH]2)c(Cl)cn1 [Example 188, N-((1H-indol-6-yl)methyl)-1-(5-(5-chloro-2-methoxypyridin-4-yl)-1H-pyrazole-3-carbonyl)piperidine-4-carboxamide] | 79.8 nM | 211 nM |
| COc1cc(-c2cc(C(=O)N3CCC(C(=O)NCc4ccc(C)o4)CC3)n[nH]2)c(Cl)cn1 [Example 189, 1-(5-(5-chloro-2-methoxypyridin-4-yl)-1H-pyrazole-3-carbonyl)-N-((5-methylfuran-2-yl)methyl)piperidine-4-carboxamide] | 119 nM | 521 nM |
| COc1cc(-c2cc(C(=O)N3CCC(C(=O)NCc4cccc5[nH]ccc45)CC3)n[nH]2)c(Cl)cn1 [Example 190, N-((1H-indol-4-yl)methyl)-1-(5-(5-chloro-2-methoxypyridin-4-yl)-1H-pyrazole-3-carbonyl)piperidine-4-carboxamide] | 24 nM | 91.8 nM |
| COc1cc(-c2cc(C(=O)N3CCC(C(=O)NCc4cccc5[nH]ncc45)CC3)n[nH]2)c(Cl)cn1 [Example 192, N-((1H-indazol-4-yl)methyl)-1-(5-(5-chloro-2-methoxypyridin-4-yl)-1H-pyrazole-3-carbonyl)piperidine-4-carboxamide] | 83.3 nM | 375 nM |
| COc1cc(-c2cc(C(=O)N3CCC(C(=O)NCc4ncc(C(F)(F)F)cc4Cl)CC3)n[nH]2)c(Cl)cn1 [Example 193, 1-(5-(5-chloro-2-methoxypyridin-4-yl)-1H-pyrazole-3-carbonyl)-N-((3-chloro-5-(trifluoromethyl)pyridin-2-yl)methyl)piperidine-4-carboxamide] | 394 nM | 1200 nM |
| COc1cc(-c2cc(C(=O)N3CCC(C(=O)NCc4cccc5cc[nH]c45)CC3)n[nH]2)c(Cl)cn1 [Example 194, N-((1H-indol-7-yl)methyl)-1-(5-(5-chloro-2-methoxypyridin-4-yl)-1H-pyrazole-3-carbonyl)piperidine-4-carboxamide] | 808 nM | 484 nM |
| COc1cc(-c2cc(C(=O)N3CCC(C(=O)NC4CCN(c5ccccc5)CC4)CC3)n[nH]2)c(Cl)cn1 [Example 196, 1-(5-(5-chloro-2-methoxypyridin-4-yl)-1H-pyrazole-3-carbonyl)-N-(1-phenylpiperidin-4-yl)piperidine-4-carboxamide] | 610 nM | 1030 nM |
| COc1cc(-c2cc(C(=O)N3CCC(C(=O)NCc4ccc5n[nH]nc5c4)CC3)n[nH]2)c(Cl)cn1 [Example 197, N-((2H-benzo[d][1,2,3]triazol-5-yl)methyl)-1-(5-(5-chloro-2-methoxypyridin-4-yl)-1H-pyrazole-3-carbonyl)piperidine-4-carboxamide] | 197 nM | 3930 nM |
| COc1cc(-c2cc(C(=O)N3CCC(C(=O)N[C@H]4CC[C@](C)(O)CC4)CC3)n[nH]2)c(Cl)cn1 [Example 198, 1-(5-(5-chloro-2-methoxypyridin-4-yl)-1H-pyrazole-3-carbonyl)-N-((1r,4r)-4-hydroxy-4-methylcyclohexyl)piperidine-4-carboxamide] | 917 nM | 4160 nM |
| COc1cc(-c2cc(C(=O)N3CCC(C(=O)N[C@H]4CC[C@@](O)(C(F)(F)F)CC4)CC3)n[nH]2)c(Cl)cn1 [Example 199, 1-(5-(5-chloro-2-methoxypyridin-4-yl)-1H-pyrazole-3-carbonyl)-N-((1r,4r)-4-hydroxy-4-(trifluoromethyl)cyclohexyl)piperidine-4-carboxamide] | 32 nM | 140 nM |
| COc1cc(-c2cc(C(=O)N3CCC(C(=O)NCc4ccc5[nH]nc(F)c5c4)CC3)n[nH]2)c(F)cn1 [Example 200, N-((3-fluoro-1H-indazol-5-yl)methyl)-1-(5-(5-fluoro-2-methoxypyridin-4-yl)-1H-pyrazole-3-carbonyl)piperidine-4-carboxamide] | 112 nM | 71.5 nM |
